In US20110263566A1 (priority 2008, published 2011):

Legend:
Test in all cases: cells
HT-1197 cells = conditions: Homo sapiens, HT1197, 72 h, read-out: IC50 (microM) (HT1197)
Experimental: (§1) To evaluate the expression status of PBK in several cell lines, western blot analysis was performed using crude cell lysate collected from those cells.
(§2) 100 micro-L of cell suspension was seeded onto 96-well microtiter plate (ViewPlate-96FTC, PerkinElmer). […] Cellular growth was determined using Cell Counting Kit-8 (DOJINDO) at 72 hours after the exposure of the candidate inhibitors. […] Accurate IC50 values were calculated as described previously.

BT-549 cells = conditions: Homo sapiens, BT-549, 72 h, read-out: IC50 (microM) (BT549)
Experimental: as §1, §2

T47D cells = conditions: Homo sapiens, 72 h, read-out: IC50 (microM) (T47D)
Experimental: as §1, §2

O=C(NC1CCNCC1)c1ccc(O)c2[nH]c(C3CC3)nc12 [Example 10, 2-cyclopropyl-4-hydroxy-N-(piperidin-4-yl)-1H-benzo[d]imidazole-7-carboxamide]
IC50 (HT-1197 cells): > 100 µM
IC50 (BT-549 cells): 20 µM
IC50 (T47D cells): 19 µM

O=C(N[C@H]1CCCNC1)c1ccc(O)c2[nH]c(C3CCCC3)nc12 [Example 16, (S)-2-Cyclopentyl-4-hydroxy-N-(piperidin-3-yl)-1H-benzo[d]imidazole-7-carboxamide]
IC50 (HT-1197 cells): 19 µM
IC50 (BT-549 cells): 0.37 µM
IC50 (T47D cells): 2.6 µM

O=C(NC1CCNCC1)c1ccc(O)c2[nH]c(-c3cccs3)nc12 [Example 40, 7-Hydroxy-N-(piperidin-4-yl)-2-(thiophen-2-yl)-1H-benzo[d]imidazole-4-carboxamide]
IC50 (HT-1197 cells): > 100 µM
IC50 (BT-549 cells): 73 µM
IC50 (T47D cells): 13 µM

N[C@H]1CC[C@@H](CNC(=O)c2ccc(O)c3[nH]c(C4CC5CCC4C5)nc23)CC1 (stereo partly drawn) [Example 56, N-{[(cis)-4-Aminocyclohexyl]methyl}-2-(bicyclo[2.2.1]heptan-2-yl)-7-hydroxy-1H-benzo[d]imidazole-4-carboxamide]
IC50 (HT-1197 cells): 61 µM
IC50 (BT-549 cells): 10 µM
IC50 (T47D cells): 30 µM

O=C(NC1CCNC1)c1ccc(O)c2[nH]c(-c3cccs3)nc12 (stereo not drawn) [Example 44, 7-Hydroxy-N-(pyrrolidin-3-yl)-2-(thiophen-2-yl)-1H-benzo[d]imidazole-4-carboxamide]
IC50 (HT-1197 cells): > 100 µM
IC50 (BT-549 cells): 15 µM
IC50 (T47D cells): 20 µM

O=C(NCC1CCCNC1)c1ccc(O)c2[nH]c(-c3cccs3)nc12 (stereo not drawn) [Example 39, 7-Hydroxy-N-(piperidin-3-ylmethyl)-2-(thiophen-2-yl)-1H-benzo[d]imidazole-4-carboxamide]
IC50 (HT-1197 cells): > 100 µM
IC50 (BT-549 cells): 15 µM
IC50 (T47D cells): 8.6 µM

NC12CC3CC(C1)CC(NC(=O)c1ccc(O)c4[nH]c(-c5cccs5)nc14)(C3)C2 [Example 54, 2-(Thiophene-2-yl)-7-hydroxy-N-(adamantate-3-ylamino)-1H-benzo[d]imidazole-4-carboxamide]
IC50 (HT-1197 cells): 10 µM
IC50 (BT-549 cells): 3.3 µM
IC50 (T47D cells): 1.6 µM

NC12CC3CC(C1)CC(NC(=O)c1ccc(O)c4[nH]c(C5CC6CCC5C6)nc14)(C3)C2 (stereo not drawn) [Example 53]
IC50 (HT-1197 cells): 24 µM
IC50 (BT-549 cells): 4.6 µM
IC50 (T47D cells): 5.2 µM

O=C(N[C@H]1CCCNC1)c1ccc(O)c2[nH]c(-c3ccc(N4CCNCC4)s3)nc12 [Example 57, (S)-7-hydroxy-2-(5-(piperazin-1-yl)thiophen-2-yl)-N-(piperidin-3-yl)-1H-benzo[d]imidazole-4-carboxamide]
IC50 (HT-1197 cells): 33 µM
IC50 (BT-549 cells): 1.1 µM
IC50 (T47D cells): 1.1 µM

O=C(NC1CCCNC1)c1ccc(O)c2[nH]c(-c3cccs3)nc12 (stereo not drawn) [Example 35, 7-Hydroxy-N-(piperidin-3-yl)-2-(thiophen-2-yl)-1H-benzo[d]imidazole-4-carboxamide]
IC50 (HT-1197 cells): 49 µM
IC50 (BT-549 cells): 0.77 µM
IC50 (T47D cells): 0.81 µM

O=C(NCC1CCCCN1)c1ccc(O)c2[nH]c(-c3ccccc3)nc12 (stereo not drawn) [Example 18, 4-Hydroxy-2-phenyl-N-(piperidin-2-ylmethyl)-1H-benzo[d]imidazole-7-carboxamide]
IC50 (HT-1197 cells): 98 µM
IC50 (BT-549 cells): 31 µM
IC50 (T47D cells): 15 µM

O=C(NC1CCCNC1)c1ccc(O)c2[nH]c(C3CC3)nc12 (stereo not drawn) [Example 11, 2-cyclopropyl-4-hydroxy-N-(piperidin-3-yl)-1H-benzo[d]imidazole-7-carboxamide]
IC50 (HT-1197 cells): 44 µM
IC50 (BT-549 cells): 1.6 µM
IC50 (T47D cells): 3.2 µM

O=C(NC[C@@H]1CCCNC1)c1ccc(O)c2[nH]c(Cc3cccs3)nc12 [Example 58, (R)-7-hydroxy-N-(piperidin-3-ylmethyl)-2-(thiophen-2-ylmethyl)-1H-benzo[d]imidazole-4-carboxamide]
IC50 (HT-1197 cells): 21 µM
IC50 (BT-549 cells): 13 µM
IC50 (T47D cells): 24 µM

O=C(NCC1CCCCN1)c1ccc(O)c2[nH]c(C3CC3)nc12 (stereo not drawn) [Example 7, 2-Cyclopropyl-4-hydroxy-N-(piperidin-2-ylmethyl)-1H-benzo[d]imidazole-7-carboxamide]
IC50 (HT-1197 cells): > 100 µM
IC50 (BT-549 cells): 9.5 µM
IC50 (T47D cells): 11 µM

O=C(N[C@H]1CCCNC1)c1ccc(O)c2[nH]c(-c3ccc(Br)s3)nc12 [Example 51, (S)-2-(5-bromothiophen-2-yl)-7-hydroxy-N-(piperidin-3-yl)-1H-benzo[d]imidazole-4-carboxamide]
IC50 (HT-1197 cells): 5.7 µM
IC50 (BT-549 cells): 0.18 µM
IC50 (T47D cells): 0.14 µM

N[C@H]1CC[C@H](NC(=O)c2ccc(O)c3[nH]c(-c4cccs4)nc23)CC1 [Example 47, N-(4-Aminocyclohexyl)-7-hydroxy-2-(thiophen-2-yl)-1H-benzo[d]imidazole-4-carboxamide]
IC50 (HT-1197 cells): 58 µM
IC50 (BT-549 cells): 5.3 µM
IC50 (T47D cells): 6.2 µM

NC1CCCC(NC(=O)c2ccc(O)c3[nH]c(C4CC5CCC4C5)nc23)C1 (stereo not drawn) [Example 55, N-(3-Aminocyclohexyl)-2-(bicyclo[2.2.1]heptan-2-yl)-7-hydroxy-1H-benzo[d]imidazole-4-carboxamide]
IC50 (HT-1197 cells): 74 µM
IC50 (BT-549 cells): 2.9 µM
IC50 (T47D cells): 9.1 µM

O=C(N[C@H]1CCCNC1)c1ccc(O)c2[nH]c(C3CC4CCC3C4)nc12 (stereo partly drawn) [Example 52, 2-(Bicyclo[2.2.1]heptan-2-yl)-7-hydroxy-N-((S)-piperidin-3-yl)-1H-benzo[d]imidazole-4-carboxamide]
IC50 (HT-1197 cells): 19 µM
IC50 (BT-549 cells): 0.43 µM
IC50 (T47D cells): 2.3 µM

O=C(NCC1CCCNC1)c1ccc(O)c2[nH]c(C3CCCC3)nc12 (stereo not drawn) [Example 15, 2-Cyclopentyl-4-hydroxy-N-(piperidin-3-ylmethyl)-1H-benzo[d]imidazole-7-carboxamide]
IC50 (HT-1197 cells): > 100 µM
IC50 (BT-549 cells): 25 µM
IC50 (T47D cells): 21 µM

O=C(N[C@H]1CCCNC1)c1ccc(O)c2[nH]c(C3CC3)nc12 [Example 9, (S)-2-cyclopropyl-4-hydroxy-N-(piperidin-3-yl)-1H-benzo[d]imidazole-7-carboxamide]
IC50 (HT-1197 cells): 7.1 µM
IC50 (BT-549 cells): 0.73 µM
IC50 (T47D cells): 1.5 µM

O=C(NC[C@H]1CCCNC1)c1ccc(O)c2[nH]c(Cc3cccs3)nc12 [Example 60, (S)-7-hydroxy-N-(piperidin-3-ylmethyl)-2-(thiophen-2-ylmethyl)-1H-benzo[d]imidazole-4-carboxamide]
IC50 (HT-1197 cells): 33 µM
IC50 (BT-549 cells): 49 µM
IC50 (T47D cells): 42 µM

O=C(NCC1CCCNC1)c1ccc(O)c2[nH]c(C3CC4CCC3C4)nc12 (stereo not drawn) [Example 48, 2-(Bicyclo[2.2.1]heptan-2-yl)-7-hydroxy-N-(piperidin-3-ylmethyl)-1H-benzo[d]imidazole-4-carboxamide]
IC50 (HT-1197 cells): ≥ 100 µM
IC50 (BT-549 cells): 20 µM
IC50 (T47D cells): 49 µM

O=C(NC1CCNC1)c1ccc(O)c2[nH]c(C3CC3)nc12 (stereo not drawn) [Example 12, 2-cyclopropyl-4-hydroxy-N-(pyrrolidin-3-yl)-1H-benzo[d]imidazole-7-carboxamide]
IC50 (HT-1197 cells): > 100 µM
IC50 (BT-549 cells): 47 µM
IC50 (T47D cells): 58 µM

O=C(N[C@@H]1CCCNC1)c1ccc(O)c2[nH]c(-c3cccs3)nc12 [Example 37, (R)-7-Hydroxy-N-(piperidin-3-yl)-2-(thiophen-2-yl)-1H-benzo[d]imidazole-4-carboxamide]
IC50 (HT-1197 cells): > 100 µM
IC50 (BT-549 cells): 20 µM
IC50 (T47D cells): 11 µM

O=C(NCC1CCCCN1)c1ccc(O)c2[nH]c(-c3cccs3)nc12 (stereo not drawn) [Example 45, 7-Hydroxy-N-(piperidin-2-ylmethyl)-2-(thiophen-2-yl)-1H-benzo[d]imidazole-4-carboxamide]
IC50 (HT-1197 cells): > 100 µM
IC50 (BT-549 cells): 29 µM
IC50 (T47D cells): 7.8 µM

O=C(N[C@H]1CCCNC1)c1ccc(O)c2[nH]c(-c3cccs3)nc12 [Example 38, (S)-7-Hydroxy-N-(piperidin-3-yl)-2-(thiophen-2-yl)-1H-benzo[d]imidazole-4-carboxamide]
IC50 (HT-1197 cells): 33 µM
IC50 (BT-549 cells): 0.46 µM
IC50 (T47D cells): 0.36 µM

O=C(NCC1CCCNC1)c1ccc(O)c2[nH]c(C3CC3)nc12 (stereo not drawn) [Example 6, 2-Cyclopropyl-4-hydroxy-N-(piperidin-3-yl-methyl)-1H-benzo[d]imidazole-7-carboxamide]
IC50 (HT-1197 cells): > 100 µM
IC50 (BT-549 cells): 30 µM
IC50 (T47D cells): 55 µM

CN1CCCC(NC(=O)c2ccc(O)c3[nH]c(-c4cccs4)nc23)C1 (stereo not drawn) [Example 41, 7-Hydroxy-N-(1-methylpiperidin-3-yl)-2-(thiophen-2-yl)-1H-benzo[d]imidazole-4-carboxamide]
IC50 (HT-1197 cells): 24 µM
IC50 (BT-549 cells): 8.1 µM
IC50 (T47D cells): 9.8 µM

O=C(N[C@H]1CCCNC1)c1ccc(O)c2[nH]c(Cc3cccs3)nc12 [Example 59, (S)-7-hydroxy-N-(piperidin-3-yl)-2-(thiophen-2-ylmethyl)-1H-benzo[d]imidazole-4-carboxamide]
IC50 (HT-1197 cells): 76 µM
IC50 (BT-549 cells): 2.9 µM
IC50 (T47D cells): 11 µM

O=C(NC1CCCNC1)c1ccc(O)c2[nH]c(C3CC4CCC3C4)nc12 (stereo not drawn) [Example 49, 2-(Bicyclo[2.2.1]heptan-2-yl)-7-hydroxy-N-(piperidin-3-yl)-1H-benzo[d]imidazole-4-carboxamide]
IC50 (HT-1197 cells): 14 µM
IC50 (BT-549 cells): 0.65 µM
IC50 (T47D cells): 4.1 µM
